Like-named read-outs stand apart in the source and are kept apart here.
Legend:
Taq DNA polymerase = Taq DNA polymerase (Thermus aquaticus, UniProt P19821); conditions: for suppression of PCR: results not shown
Description: Using Taq DNA polymerase, a standard 500 bp lambda template PCR using the following reagents, was conducted in the presence of differing quantities of the inorganic pyrorphosphate, tetrasodium pyrophosphate decahydrate (PPi).
1× Reaction Buffer: 10 mM Tris. pH 8.0, 50 mM KCl.
(§1) PCR conditions for the assay were as follows:
The PPi was added such that the final concentration in the reaction mixture was 0, 1, 2, 3, 4 and 5 mM. In this Figure, the lanes correspond to the following concentrations of PPi
In order to eliminate this possibility, the procedure of Example 1 with 3 mM PPi was repeated in the presence of various concentrations of magnesium ions.
The example was repeated using concentrations of PPi of less than 1 mM.

[1] = tested on: thermostable DNA polymerases (Taq, Tbr, Tth, TspNH, Pfu, 9°N exo-, VENT, Accurase); assay: PCR with different thermostable DNA polymerases, with PPi and Sac PPase; type: biochemical; conditions: FIGS. 7a, 7b, 8b
From the text: A variety of thermostable DNA polymerases were employed in the method of the invention and some comparative assays. These included several non-proofreading Thermus sp. DNA polymerases, proof-reading hyperthermophilic archael DNA polymerases and mixes of non-proofreading and proofreading DNA polymerases.
They were all tested using the 500 bp lambda PCR as described in Example 1 (FIGS. 7a and 7b), and several using the Angiotensin assay as described in Example 4 (FIGS. 8a and 8b).

[2] = 500 bp lambda PCR in the presence of PPi and PPase; type: biochemical; conditions: 0.2 u Sac PPase; 95° C. for 5 mins
From the text: The 500 bp lambda PCR of Example 1 was repeated, but this time, 0.2 u of Sulfolobus acidocaldarius PPase (Sac PPase) was included in reactions containing pyrophosphate (PPi).
The results are shown in FIG. 3 where the lanes represent the following reactions: […]

[3] = tested on: 321 bp fragment of the human angiotensin gene; assay: Angiotensin PCR assay requiring a HotStart reaction; type: biochemical; conditions: up to two hours at ambient temperature; 0.2 u Sac PPase, 3 mM PPi
From the text: The method of the invention was then applied to an assay system that requires a “HotStart” reaction in order to generate a PCR product of the correct size.
The assay is based around the amplification of a 321 bp fragment of the human angiotensin gene. It has been recognised that the assay will only generate the correct amplification product in the presence of betaine (EP-A-0962526—see in particular Example 8).
Without betaine a HotStart DNA polymerase generates few non-specific amplification products or no products at all whereas a non-HotStart DNA polymerase PCR generates a large number of non-specific amplification products.
The PCR conditions used in the Angiotensin assay can be summarised as follows.
as §1
The reaction was conducted using a PE9700 Instrument in the presence of 3 mM PPi and 0.2 u PPase as described in Example 3.
The effect of leaving a PCR mixture containing 0.2 u Sac PPase and 3 mM PPi at room temperature 20° C. for various lengths of time prior to conducting the Angiotensin assay, was investigated. Although Sac PPase is a thermostable enzyme, it was possible that there would be a small level of enzyme activity at ambient temperatures. This might lead to insufficient PPi in the reaction to inhibit/stop the DNA polymerase leading to primer extension and lack of “HotStart” functionality. […]

Sequence of Taq DNA polymerase (P19821 whole entry): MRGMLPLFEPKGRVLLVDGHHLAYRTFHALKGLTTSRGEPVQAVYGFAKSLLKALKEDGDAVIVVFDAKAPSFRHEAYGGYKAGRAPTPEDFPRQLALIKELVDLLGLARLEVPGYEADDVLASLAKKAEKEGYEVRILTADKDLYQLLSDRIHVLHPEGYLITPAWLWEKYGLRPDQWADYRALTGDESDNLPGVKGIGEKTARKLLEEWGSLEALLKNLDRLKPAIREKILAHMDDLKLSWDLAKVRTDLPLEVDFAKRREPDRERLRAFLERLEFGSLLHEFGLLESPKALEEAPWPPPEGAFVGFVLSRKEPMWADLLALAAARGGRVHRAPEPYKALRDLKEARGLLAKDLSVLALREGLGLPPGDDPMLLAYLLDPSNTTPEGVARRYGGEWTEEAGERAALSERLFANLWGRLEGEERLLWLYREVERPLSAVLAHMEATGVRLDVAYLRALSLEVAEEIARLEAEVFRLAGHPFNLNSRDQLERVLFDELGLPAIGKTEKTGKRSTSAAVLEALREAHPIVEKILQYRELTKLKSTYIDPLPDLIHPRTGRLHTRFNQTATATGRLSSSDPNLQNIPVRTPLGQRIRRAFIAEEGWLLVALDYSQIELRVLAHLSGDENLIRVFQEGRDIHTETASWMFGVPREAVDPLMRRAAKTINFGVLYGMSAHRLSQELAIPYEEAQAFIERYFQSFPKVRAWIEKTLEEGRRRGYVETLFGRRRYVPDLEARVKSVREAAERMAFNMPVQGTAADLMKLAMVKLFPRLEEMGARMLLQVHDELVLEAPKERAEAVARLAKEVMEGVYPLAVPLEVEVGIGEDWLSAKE

Molecule	suppression of PCR (Taq DNA polymerase; 0.4 mM PPi)	suppression of PCR (Taq DNA polymerase; 0.6 mM PPi)	PCR with increasing magnesium ion concentration (Taq DNA polymerase; 3 mM PPi, Mg++ up to 10 mM final concentration, FIG. 2)	PCR product formation in presence of PPi (Taq DNA polymerase; PPi 1, 2, 3, 4 and 5 mM final, 1.5 mM MgCl2, FIG. 1)	inhibition of DNA polymerases by PPi ([1]; 3 mM PPi, no PPase)	reversal of PPi inhibition by PPase ([1]; 3 mM PPi and 0.2u Sac PPase)	destruction of pyrophosphate so that the PCR reaction could proceed [2]	ambient temperature digestion of PPi by PPase [3]
O.O.O.O.O.O.O.O.O.O.O=P([O-])([O-])OP(=O)([O-])[O-].[Na+].[Na+].[Na+].[Na+] [PPi, tetrasodium pyrophosphate decahydrate]	did not completely suppress the PCR	no PCR occurred	does not allow PCR to occur	no PCR product was produced	inhibited			
Sac PPase: thermostable pyrophosphatase of Sulfolobus acidocaldarius, obtainable from GeneSys Limited (protein, UniProt P50308 1-173, looked up) Inorganic pyrophosphatase: MKLSPGKNAPDVVNVLVEIPQGSNIKYEYDDEEGVIKVDRVLYTSMNYPFNYGFIPGTLEEDGDPLDVLVITNYQLYPGSVIEVRPIGILYMKDEEGEDAKIVAVPKDKTDPSFSNIKDINDLPQATKNKIVHFFEHYKELEPGKYVKISGWGSATEAKNRIQLAIKRVSGGQ						inhibition could be overcome	sufficient to destroy the pyrophosphate	insufficient ambient temperature digestion of the PPi
